Reference: PubChem BioAssay AID1963976 (Molecular Pharmacology Branch, DTP, NCI, 2024)
“And” between values parts separate entries of the source, which are not always exact repeats. Equal entries are not always repeated.

Test system: 435261-313-R-J1-PDC tumor spheroid viability
Test: Anticancer human tumor 435261-313-R-J1-PDC patient-derived colon adenocarcinoma cell line growth inhibition [PI3K]
Details: spheroids with HUVEC and MSC; for viability, T/C: stronger effect = lower value; active = viability on the fitted dose curve at most 10% of control; inactive = the rest
Procedure, shortened: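 Agents were dosed from a top concentration near clinical Cmax (otherwise 10 microM) in half-log decrements, alone or combined with PI3K inhibitors. The spheroids contain tumor cells plus endothelial (HUVEC) and MSC stroma; viability is measured.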

[1] = curve of first compound, second compound 0.00316 µM
[2] = curve of first compound, second compound 0.01 µM
[3] = curve of first compound, second compound 0.0316 µM
[4] = curve of first compound, second compound 0.1 µM
[5] = curve of first compound, second compound 0.316 µM
[6] = curve of first compound, second compound 1 µM
[7] = second compound 0.00316 µM, first compound 0.0316 µM
[8] = second compound 0.00316 µM, first compound 0.1 µM
[9] = second compound 0.00316 µM, first compound 0.316 µM
[10] = second compound 0.00316 µM, first compound 1 µM
[11] = second compound 0.00316 µM, first compound 3.16 µM
[12] = second compound 0.00316 µM, first compound 10 µM
[13] = second compound 0.01 µM, first compound 0.0316 µM
[14] = second compound 0.01 µM, first compound 0.1 µM
[15] = second compound 0.01 µM, first compound 0.316 µM
[16] = second compound 0.01 µM, first compound 1 µM
[17] = second compound 0.01 µM, first compound 3.16 µM
[18] = second compound 0.01 µM, first compound 10 µM
[19] = second compound 0.0316 µM, first compound 0.0316 µM
[20] = second compound 0.0316 µM, first compound 0.1 µM
[21] = second compound 0.0316 µM, first compound 0.316 µM
[22] = second compound 0.0316 µM, first compound 1 µM
[23] = second compound 0.0316 µM, first compound 3.16 µM
[24] = second compound 0.0316 µM, first compound 10 µM
[25] = second compound 0.1 µM, first compound 0.0316 µM
[26] = second compound 0.1 µM, first compound 0.1 µM
[27] = second compound 0.1 µM, first compound 0.316 µM
[28] = second compound 0.1 µM, first compound 1 µM
[29] = second compound 0.1 µM, first compound 3.16 µM
[30] = second compound 0.1 µM, first compound 10 µM
[31] = second compound 0.316 µM, first compound 0.0316 µM
[32] = second compound 0.316 µM, first compound 0.1 µM
[33] = second compound 0.316 µM, first compound 0.316 µM
[34] = second compound 0.316 µM, first compound 1 µM
[35] = second compound 0.316 µM, first compound 3.16 µM
[36] = second compound 0.316 µM, first compound 10 µM
[37] = second compound 1 µM, first compound 0.0316 µM
[38] = second compound 1 µM, first compound 0.1 µM
[39] = second compound 1 µM, first compound 0.316 µM
[40] = second compound 1 µM, first compound 1 µM
[41] = second compound 1 µM, first compound 3.16 µM
[42] = second compound 1 µM, first compound 10 µM
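Note: spheroids exposed to compounds for 7 days.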

CNC(=O)c1ccc(N2C(=S)N(c3ccc(C#N)c(C(F)(F)F)c3)C(=O)C2(C)C)cc1F + CC(Nc1ccc2c(c1)OCCn1cc(N3C(=O)OCC3C(F)F)nc1-2)C(N)=O
> 10000 nM: IC50 [1] | IC50 [2] | IC50 [3]
< 31.6 nM: IC50 [4] | IC50 [5] | IC50 [6]
inactive: viability, T/C [7] 73.1% | viability, T/C [8] 95.5% | viability, T/C [9] 74.7% | viability, T/C [10] 101% | viability, T/C [11] 106% | viability, T/C [12] 93.2% | viability, T/C [13] 81.7% | viability, T/C [14] 92.6% | viability, T/C [15] 77.2% | viability, T/C [16] 96% | viability, T/C [17] 141% | viability, T/C [18] 123% | viability, T/C [19] 69.8% | viability, T/C [20] 77.3% | viability, T/C [21] 57.7% | viability, T/C [22] 82.9% | viability, T/C [23] 84.6% | viability, T/C [24] 68.2% | viability, T/C [25] 48.9% | viability, T/C [26] 28.5% | viability, T/C [27] 44.9% | viability, T/C [28] 51.9% | viability, T/C [29] 36.8% | viability, T/C [30] 29.6% | viability, T/C [31] 22.3% | viability, T/C [32] 19.2% | viability, T/C [33] 15.5% | viability, T/C [34] 24.6% | viability, T/C [35] 24% | viability, T/C [36] 17.5% | viability, T/C [37] 15.5% | viability, T/C [38] 15.6% | viability, T/C [39] 15.3% | viability, T/C [40] 15.2% | viability, T/C [41] 18.8% | viability, T/C [42] 12.8%

Cn1cnc2c(F)c(Nc3ccc(Br)cc3Cl)c(C(=O)NOCCO)cc21
< 9.49 nM: IC50 (curve of compound)
inactive: viability, T/C (compound 0.00949 µM) 33.8% and 34.9% and 45.8% | viability, T/C (compound 0.03 µM) 32.3% and 27.6% and 36% | viability, T/C (compound 0.0949 µM) 12.5% and 23.4% and 29.8% | viability, T/C (compound 0.3 µM) 30.7% and 22.9% and 24.5% | viability, T/C (compound 0.949 µM) 16.1% and 18.4% and 20.9% | viability, T/C (compound 3 µM) 9.65% and 10.9% and 16.8%

CC1(C)CCC(Nc2ncc(C(F)(F)F)c(-c3c[nH]c4c(P(C)(C)=O)c(C#N)ccc34)n2)CN1 (stereo unspecified) + COc1c(OCCCN2CCOCC2)ccc2c3n(c(=NC(=O)c4cnc(N)nc4)nc12)CCN3
31.6 nM: IC50 [2]
inactive: viability, T/C [7] 56.2% | viability, T/C [8] 58.8% | viability, T/C [9] 54.5% | viability, T/C [10] 57.2% | viability, T/C [11] 50.1% | viability, T/C [13] 42.3% | viability, T/C [14] 43.9% | viability, T/C [15] 49.2% | viability, T/C [16] 47.7% | viability, T/C [17] 58.8% | viability, T/C [19] 31.6% | viability, T/C [20] 32.6% | viability, T/C [21] 33.7% | viability, T/C [22] 30.9% | viability, T/C [23] 21.5% | viability, T/C [25] 17.8% | viability, T/C [26] 16.8% | viability, T/C [27] 15.5% | viability, T/C [28] 18.6%
3170 nM: IC50 [1]
< 31.6 nM: IC50 [3] | IC50 [4] | IC50 [5] | IC50 [6]
active: viability, T/C [12] 0.44% | viability, T/C [18] 0.48% | viability, T/C [24] 0.35% | viability, T/C [29] 7.14% | viability, T/C [30] 0.28% | viability, T/C [31] 7.08% | viability, T/C [32] 6.11% | viability, T/C [33] 5.71% | viability, T/C [34] 5.56% | viability, T/C [35] 2.4% | viability, T/C [36] 0.23% | viability, T/C [37] 3.57% | viability, T/C [38] 2.68% | viability, T/C [39] 3.18% | viability, T/C [40] 2.83% | viability, T/C [41] 1.6% | viability, T/C [42] 0.23%
